Assays:
[1] = target: T1, HCV NS3/4A protease D168A variant (Hepatitis C virus genotype 1a, UniProt P27958, C1185S/D1194A); assay type: biochemical; settings: for Ki: 2 nM protease preincubated 1 h at room temperature with inhibitor, pH 7.5, 200 nM fluorogenic substrate, Morrison equation global fit, error from global fit of at least three replicates
T1 construct: His tag (cleaved yes); made in house; host or cells: Escherichia coli BL21(DE3), pET28a

[2] = system: HCV NS3/4A protease D168A variant; assay type: biochemical, Hepatitis C virus genotype 1a
[3] = target: T2, HCV NS3/4A protease GT1a WT (Hepatitis C virus genotype 1a, UniProt P27958, C1185S); assay type: biochemical; settings: for Ki: 2 nM protease preincubated 1 h at room temperature with inhibitor, pH 7.5, 200 nM fluorogenic substrate, Morrison equation global fit, error from global fit of at least three replicates; for Fold increase in potency against WT compared with the parent compound: relative to parent compound, WT protease
T2 construct: His tag (cleaved yes); made in house; host or cells: Escherichia coli BL21(DE3), pET28a
T2 sequence (P27958 1027-1208 C1185S): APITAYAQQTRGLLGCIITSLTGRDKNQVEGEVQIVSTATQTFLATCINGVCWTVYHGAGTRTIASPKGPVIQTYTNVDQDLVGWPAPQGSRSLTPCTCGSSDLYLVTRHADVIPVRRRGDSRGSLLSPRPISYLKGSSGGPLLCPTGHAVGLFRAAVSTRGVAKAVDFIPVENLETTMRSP

T1 sequence (P27958 1027-1208 C1185S/D1194A): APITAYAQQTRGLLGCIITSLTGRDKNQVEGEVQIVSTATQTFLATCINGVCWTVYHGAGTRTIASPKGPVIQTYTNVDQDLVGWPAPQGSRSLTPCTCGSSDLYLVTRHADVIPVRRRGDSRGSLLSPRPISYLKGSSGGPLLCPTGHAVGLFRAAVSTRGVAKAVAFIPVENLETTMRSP

Compound	Ki [1] [nM]	Fold change of Ki, D168A relative to WT [2] [fold]	Ki [3] [nM]	Fold increase in potency against D168A compared with grazoprevir [1] [fold]	Fold increase in potency against D168A compared with the parent compound [1] [fold]	Fold increase in potency against WT compared with the parent compound [3]
COC(=O)N[C@H](C(=O)N[C@H]1CCCCC/C=C\[C@@H]2C[C@@]2(C(=O)NS(=O)(=O)C2(C)CC2)NC(=O)[C@@H]2C[C@@H](Oc3nc4cc(OC)ccc4nc3C)CN2C1=O)C(C)C [P4P5-1B]	102 ± 6.8	8	13 ± 0.8			
CCC1(OC(=O)N[C@H]2CCCCC/C=C\[C@@H]3C[C@@]3(C(=O)NS(=O)(=O)C3(C)CC3)NC(=O)[C@@H]3C[C@@H](Oc4nc5cc(OC)ccc5nc4C)CN3C2=O)CCCC1 [P4-5]	21.7 ± 2.3	17	1.29 ± 0.05			
COc1ccc2nc(C)c(O[C@@H]3C[C@H]4C(=O)N[C@]5(C(=O)NS(=O)(=O)C6(C)CC6)C[C@H]5/C=C\CCCCC[C@H](NC(=O)OC5CCCCC5)C(=O)N4C3)nc2c1 [P4-6]	12.7 ± 1.2	14	0.94 ± 0.25			
COc1ccc2nc(C)c(O[C@@H]3C[C@H]4C(=O)N[C@]5(C(=O)NS(=O)(=O)C6(C)CC6)C[C@H]5/C=C\CCCCC[C@H](NC(=O)OC5C[C@@H]6C[C@@H]6C5)C(=O)N4C3)nc2c1 (stereo partly shown) [P4-7]	2.3 ± 0.7	4	0.54 ± 0.2	~20	~20	approximately 6.5 fold
COc1ccc2nc(C)c(O[C@@H]3C[C@H]4C(=O)N[C@]5(C(=O)NS(=O)(=O)C6(C)CC6)C[C@H]5/C=C\CCCCC[C@H](NC(=O)OC5(C)CC5)C(=O)N4C3)nc2c1 [P4-1]	27.9 ± 4.1	6	4.44 ± 0.3		~2	
COC(=O)NC1(C(=O)N[C@H]2CCCCC/C=C\[C@@H]3C[C@@]3(C(=O)NS(=O)(=O)C3(C)CC3)NC(=O)[C@@H]3C[C@@H](Oc4nc5cc(OC)ccc5nc4C)CN3C2=O)CCCC1 [P4P5-5]	931 ± 70	30	31 ± 2.74			
COc1ccc2nc(C)c(O[C@@H]3C[C@H]4C(=O)N[C@]5(C(=O)NS(=O)(=O)C6(C)CC6)C[C@H]5/C=C\CCCCC[C@H](NC(=O)OC5(C)CCC5)C(=O)N4C3)nc2c1 [P4-2]	46.4 ± 3.4	33	1.4 ± 0.13			4 fold
CCc1nc2ccc(OC)cc2nc1O[C@@H]1C[C@H]2C(=O)N[C@]3(C(=O)NS(=O)(=O)C4CC4)C[C@H]3/C=C\CCCCC[C@H](NC(=O)OC(C)(C)C)C(=O)N2C1 [5172-mcP1P3, reference compound]	82.4 ± 4.4		3.29 ± 0.52			
